≈ marks a conversion by molar mass, not a printed value. Calls of active or inactive are those of the source. The calls are words filed in the database; no cut-off is given here.

In test [1] the test system is Candida albicans. Put plainly: microbe, parasite or virus in culture. The settings on record: ATCC 10231, 168 h.
Description: Antifungal activity against Candida albicans ATCC 10231 after 7 days by two-fold serial dilution method
For test [2], the system named is Pseudomonas aeruginosa. Put plainly: Antibacterial activity against Pseudomonas aeruginosa ATCC 27855 after 24 hr by two-fold serial dilution method. In kind it is functional. As to conditions: ATCC 27855, 24 h.
The subject of test [3] is Staphylococcus aureus. As to the kind of experiment: Antibacterial activity against Staphylococcus aureus ATCC 25293 at 6.25 to 100 ug/ml after 24 hr by two-fold serial dilution method. In kind it is functional, organism-based.
Test [4] has as its system Mycobacterium tuberculosis. Put plainly: Antimycobacterium activity against Mycobacterium tuberculosis H37Rv at 100 ug/ml by Microplate Alamar Blue Assay. In kind it is functional, organism-based. On the technique in general: Resazurin is reduced to fluorescent resorufin, in cell work by metabolically active cells.
The subject of test [5] is Shigella sonnei. Put plainly: Antibacterial activity against Shigella sonnei ATCC 11060 at 6.25 to 100 ug/ml after 24 hr by two-fold serial dilution method. Type of test: functional, organism-based.
Test [6] concerns Salmonella typhimurium. Put plainly: Antibacterial activity against Salmonella enterica subsp. enterica serovar Typhimurium at 6.25 to 100 ug/ml after 24 hr by two-fold serial dilution method. In kind it is functional, organism-based.
The test system of test [7] is Candida albicans. Put plainly: Antifungal activity against Candida albicans ATCC 10231 at 6.25 to 100 ug/ml after 7 days by two-fold serial dilution method. Type of test: functional, organism-based.
Test [8] concerns Pseudomonas aeruginosa. Put plainly: Antibacterial activity against Pseudomonas aeruginosa ATCC 27855 at 6.25 to 100 ug/ml after 24 hr by two-fold serial dilution method. Type of test: functional, organism-based.
Test [9] relates to Escherichia coli. As to the kind of experiment: Antibacterial activity against Escherichia coli ATCC 25922 at 6.25 to 100 ug/ml after 24 hr by two-fold serial dilution method. Type of test: functional, organism-based.
Test [10] deals with Bacillus subtilis. As to the kind of experiment: Antibacterial activity against Bacillus subtilis ATCC 10400 at 6.25 to 100 ug/ml after 24 hr by two-fold serial dilution method. Type of test: functional, organism-based.
The test system of test [11] is Salmonella typhimurium. As to the kind of experiment: Antibacterial activity against Salmonella enterica subsp. enterica serovar Typhimurium after 24 hr by two-fold serial dilution method. In kind it is functional.
In test [12] the test system is Staphylococcus aureus. As to the kind of experiment: Antibacterial activity against Staphylococcus aureus ATCC 25293 after 24 hr by two-fold serial dilution method. In kind it is functional. The settings on record: ATCC 25293, 24 h.
The test system of test [13] is Shigella sonnei. As to the kind of experiment: Antibacterial activity against Shigella sonnei ATCC 11060 after 24 hr by two-fold serial dilution method. In kind it is functional. As to conditions: ATCC 11060, 24 h.
For test [14], the system named is Escherichia coli. As to the kind of experiment: Antibacterial activity against Escherichia coli ATCC 25922 after 24 hr by two-fold serial dilution method. In kind it is functional. The settings on record: ATCC 25922, 24 h.
The test system of test [15] is Bacillus subtilis. As to the kind of experiment: Antibacterial activity against Bacillus subtilis ATCC 10400 after 24 hr by two-fold serial dilution method. Type of test: functional. The settings on record: ATCC 10400, 24 h.

As to `Clc1ccc(COC(Cn2ccnc2)c2ccc(Cl)cc2Cl)c(Cl)c1` (stereo not drawn) [MICONAZOLE], the MIC against Candida albicans [1] and in the test on Pseudomonas aeruginosa [2] was 3.12 mg/L (≈ 7.5 µM) throughout.
Consider `CC(Oc1cc(Cl)c(Cl)cc1Cl)C(=O)N/N=C\c1cccs1` (stereo not drawn), for which the result (with Staphylococcus aureus [3]; in [4]; in the test with Shigella sonnei [5]; with Salmonella typhimurium [6]; with Candida albicans [7]; with Pseudomonas aeruginosa [8]) was inactive. Also, the outcome in the test on Escherichia coli [9] and in the test with Bacillus subtilis [10] was inactive.
Take `CC(Oc1cc(Cl)c(Cl)cc1Cl)C(=O)N/N=C\c1cccnc1` (stereo not drawn): the outcome (in the test with Staphylococcus aureus [3]; in [4]; in the test with Shigella sonnei [5]; in the test on Salmonella typhimurium [6]; with Candida albicans [7]; with Pseudomonas aeruginosa [8]) was inactive. In addition, the outcome in the test with Escherichia coli [9] and in the test with Bacillus subtilis [10] was inactive.
With `O=C(N[C@H](CO)[C@H](O)c1ccc([N+](=O)[O-])cc1)C(Cl)Cl` [CHLORAMPHENICOL], the MIC with Salmonella typhimurium [11] is 25 mg/L (≈ 77.4 µM); in the test on Staphylococcus aureus [12] it was 6.25 mg/L (≈ 19.3 µM); against Shigella sonnei [13], 25 mg/L (≈ 77.4 µM); with Escherichia coli [14], 12.5 mg/L (≈ 38.7 µM); in the test on Bacillus subtilis [15], 6.25 mg/L (≈ 19.3 µM).
